Reference: the NIST ThermoML archive (doi:10.1021/acs.jced.7b00106)
± gives the expanded uncertainty stated by the source.

Conditions: Hot wire method

FC(F)(F)/C=C/Cl [(E)-1-chloro-3,3,3-trifluoroprop-1-ene]
Conditions | thermal conductivity [W/m/K]
402.75 K, 1852 kPa, Liquid | 0.05457 ± 0.0018
402.76 K, 13350 kPa, Liquid | 0.06467 ± 0.00073
402.76 K, 13371 kPa, Liquid | 0.06472 ± 0.00096
402.78 K, 848 kPa, Fluid (supercritical or subcritical phases) | 0.01932 ± 0.0027
402.79 K, 846 kPa, Fluid (supercritical or subcritical phases) | 0.01931 ± 0.0017
402.79 K, 21633 kPa, Liquid | 0.06986 ± 0.00083
402.8 K, 21636 kPa, Liquid | 0.06986 ± 0.00082
402.82 K, 28727 kPa, Liquid | 0.07362 ± 0.00085
402.84 K, 5979 kPa, Liquid | 0.05886 ± 0.00072
402.84 K, 5987 kPa, Liquid | 0.05889 ± 0.00072
402.84 K, 11088 kPa, Liquid | 0.0631 ± 0.0011
402.84 K, 28733 kPa, Liquid | 0.07365 ± 0.0014
402.85 K, 11093 kPa, Liquid | 0.06312 ± 0.001
402.86 K, 18624 kPa, Liquid | 0.06805 ± 0.00077
402.87 K, 18643 kPa, Liquid | 0.06812 ± 0.00084
402.89 K, 4691 kPa, Liquid | 0.05763 ± 0.00076
402.89 K, 4699 kPa, Liquid | 0.05767 ± 0.00076
402.9 K, 9108 kPa, Liquid | 0.06161 ± 0.0022
402.9 K, 33571 kPa, Liquid | 0.07603 ± 0.0014
402.91 K, 674 kPa, Fluid (supercritical or subcritical phases) | 0.01931 ± 0.0018
402.91 K, 9096 kPa, Liquid | 0.0616 ± 0.0011
402.91 K, 33586 kPa, Liquid | 0.07604 ± 0.0011
402.93 K, 3567 kPa, Liquid | 0.05645 ± 0.001
402.94 K, 3574 kPa, Liquid | 0.05661 ± 0.001
402.96 K, 15767 kPa, Liquid | 0.06628 ± 0.001
402.96 K, 24990 kPa, Liquid | 0.07167 ± 0.0011
402.96 K, 25002 kPa, Liquid | 0.07171 ± 0.0014
402.97 K, 7096 kPa, Liquid | 0.05991 ± 0.0011
402.97 K, 15769 kPa, Liquid | 0.0663 ± 0.001
402.98 K, 2633 kPa, Liquid | 0.05541 ± 0.0024
402.98 K, 7087 kPa, Liquid | 0.05989 ± 0.00068
402.99 K, 2643 kPa, Liquid | 0.05551 ± 0.0022
403 K, 1856 kPa, Liquid | 0.0546 ± 0.0017
403.01 K, 1850 kPa, Liquid | 0.05458 ± 0.0017
403.03 K, 21637 kPa, Liquid | 0.06984 ± 0.00089
403.04 K, 13347 kPa, Liquid | 0.06471 ± 0.00073
403.04 K, 13368 kPa, Liquid | 0.06474 ± 0.00085
403.07 K, 21655 kPa, Liquid | 0.06986 ± 0.00085
403.09 K, 28719 kPa, Liquid | 0.0736 ± 0.0011
403.1 K, 28719 kPa, Liquid | 0.07336 ± 0.0012
403.11 K, 5980 kPa, Liquid | 0.05886 ± 0.001
403.12 K, 5983 kPa, Liquid | 0.05891 ± 0.00084
403.12 K, 11089 kPa, Liquid | 0.06307 ± 0.00082
403.12 K, 11091 kPa, Liquid | 0.06308 ± 0.00082
403.14 K, 18630 kPa, Liquid | 0.06809 ± 0.00083
403.15 K, 18626 kPa, Liquid | 0.06808 ± 0.0019
403.17 K, 4697 kPa, Liquid | 0.05766 ± 0.00096
403.18 K, 4698 kPa, Liquid | 0.05772 ± 0.00098
403.18 K, 9094 kPa, Liquid | 0.06153 ± 0.00093
403.19 K, 9095 kPa, Liquid | 0.06162 ± 0.00095
403.19 K, 33557 kPa, Liquid | 0.076 ± 0.0011
403.2 K, 33576 kPa, Liquid | 0.07601 ± 0.001
403.23 K, 3569 kPa, Liquid | 0.0565 ± 0.0012
403.24 K, 3565 kPa, Liquid | 0.05654 ± 0.0012
403.24 K, 15779 kPa, Liquid | 0.06628 ± 0.00082
403.24 K, 25000 kPa, Liquid | 0.07167 ± 0.0022
403.25 K, 15789 kPa, Liquid | 0.06631 ± 0.00075
403.25 K, 24985 kPa, Liquid | 0.07165 ± 0.0016
403.27 K, 2641 kPa, Liquid | 0.05557 ± 0.002
403.27 K, 7090 kPa, Liquid | 0.05988 ± 0.001
403.27 K, 7094 kPa, Liquid | 0.05994 ± 0.00086
403.28 K, 2638 kPa, Liquid | 0.05558 ± 0.0014
403.3 K, 1852 kPa, Liquid | 0.05468 ± 0.0027
403.31 K, 1856 kPa, Liquid | 0.05476 ± 0.0043
403.32 K, 13355 kPa, Liquid | 0.06468 ± 0.0021
403.33 K, 13350 kPa, Liquid | 0.06467 ± 0.0021
403.33 K, 21631 kPa, Liquid | 0.0698 ± 0.0018
403.33 K, 21643 kPa, Liquid | 0.06984 ± 0.0016
403.37 K, 28710 kPa, Liquid | 0.07356 ± 0.0059
403.37 K, 28735 kPa, Liquid | 0.0736 ± 0.0067
403.39 K, 11081 kPa, Liquid | 0.06304 ± 0.0013
403.4 K, 5980 kPa, Liquid | 0.05891 ± 0.0012
403.4 K, 11095 kPa, Liquid | 0.06309 ± 0.0012
